What all share (type): cell-based
For test [1], the target named is T1, von Hippel-Lindau disease tumor suppressor/Androgen receptor (Homo sapiens, UniProt P10275+P40337). As to the kind of experiment: Protac activity at E3 ubiquitin-protein ligase/AR in human LNCAP cells assessed as induction of AR degradation after 24 hrs by ELISA relative to control. In general terms: An ELISA detects its analyte on a solid surface through an enzyme-linked reagent.
Target sequence in this assay (P10275 whole entry, looked up): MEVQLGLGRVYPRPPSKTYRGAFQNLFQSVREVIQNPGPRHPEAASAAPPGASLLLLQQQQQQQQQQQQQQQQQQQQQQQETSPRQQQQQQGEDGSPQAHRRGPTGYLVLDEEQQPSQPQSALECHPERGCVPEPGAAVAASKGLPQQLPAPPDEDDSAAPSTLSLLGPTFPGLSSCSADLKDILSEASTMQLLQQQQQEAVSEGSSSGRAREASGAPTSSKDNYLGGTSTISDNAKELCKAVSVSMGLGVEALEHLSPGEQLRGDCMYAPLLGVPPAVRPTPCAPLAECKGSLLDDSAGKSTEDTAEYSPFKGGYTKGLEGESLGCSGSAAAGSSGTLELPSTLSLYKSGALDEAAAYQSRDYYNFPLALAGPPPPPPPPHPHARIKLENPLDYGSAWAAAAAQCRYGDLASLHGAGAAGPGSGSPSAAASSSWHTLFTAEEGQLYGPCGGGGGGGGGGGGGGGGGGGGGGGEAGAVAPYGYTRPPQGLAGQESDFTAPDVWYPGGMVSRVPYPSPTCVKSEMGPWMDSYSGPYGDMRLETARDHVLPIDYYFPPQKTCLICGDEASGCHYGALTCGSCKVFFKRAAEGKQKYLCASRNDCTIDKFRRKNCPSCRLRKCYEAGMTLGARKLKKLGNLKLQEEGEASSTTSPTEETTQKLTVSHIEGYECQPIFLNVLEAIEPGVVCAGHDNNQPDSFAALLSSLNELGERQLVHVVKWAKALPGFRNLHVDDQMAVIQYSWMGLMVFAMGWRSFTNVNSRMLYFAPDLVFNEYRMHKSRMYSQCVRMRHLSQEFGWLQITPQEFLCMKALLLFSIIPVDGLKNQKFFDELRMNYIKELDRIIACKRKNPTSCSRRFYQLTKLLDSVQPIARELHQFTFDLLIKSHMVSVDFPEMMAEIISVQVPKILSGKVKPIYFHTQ
Target sequence in this assay (P40337 whole entry, looked up): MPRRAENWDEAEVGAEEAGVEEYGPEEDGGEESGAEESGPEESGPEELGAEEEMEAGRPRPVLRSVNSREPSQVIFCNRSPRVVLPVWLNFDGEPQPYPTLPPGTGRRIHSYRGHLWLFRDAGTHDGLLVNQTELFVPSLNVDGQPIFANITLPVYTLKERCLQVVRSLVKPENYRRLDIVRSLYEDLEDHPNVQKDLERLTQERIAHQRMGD

In test [2] the target is T1, von Hippel-Lindau disease tumor suppressor/Androgen receptor. Briefly: Protac activity at E3 ubiquitin-protein ligase/AR in human LNCAP cells assessed as induction of AR degradation after 24 hrs by ELISA.
Target sequence in this assay (P10275 whole entry): as the sequence (P10275 whole entry, looked up) above
Target sequence in this assay (P40337 whole entry): as the sequence (P40337 whole entry, looked up) above
For test [3] the target is unchanged. Briefly: Protac activity at E3 ubiquitin-protein ligase/AR in human VCAP cells assessed as induction of AR degradation after 24 hrs by ELISA relative to control.
Target sequence in this assay (P10275 whole entry, looked up): as the sequence (P10275 whole entry, looked up) above
Target sequence in this assay (P40337 whole entry, looked up): as the sequence (P40337 whole entry, looked up) above
Test [4] shares this target. As to the kind of experiment: Protac activity at E3 ubiquitin-protein ligase/AR in human VCAP cells assessed as induction of AR degradation after 24 hrs by ELISA.
Target sequence in this assay (P10275 whole entry): as the sequence (P10275 whole entry, looked up) above
Target sequence in this assay (P40337 whole entry): as the sequence (P40337 whole entry, looked up) above
Test [5] shares this target. Briefly: Protac activity at E3-ubiquitin ligase/AR in human LNCAP cells assessed as AR degradation up to 15 mins by ELISA relative to control. Set-up: concentration or dose not given beside the values.
Target sequence in this assay (P10275 whole entry, looked up): as the sequence (P10275 whole entry, looked up) above
Target sequence in this assay (P40337 whole entry, looked up): as the sequence (P40337 whole entry, looked up) above
Test [6] has the same target. Briefly: Protac activity at E3-ubiquitin ligase/AR in human VCaP cells assessed as AR degradation up to 15 mins by ELISA relative to control. Set-up: concentration or dose not given beside the values.
Target sequence in this assay (P10275 whole entry, looked up): as the sequence (P10275 whole entry, looked up) above
Target sequence in this assay (P40337 whole entry, looked up): as the sequence (P40337 whole entry, looked up) above
Test [7] has the same target. As to the kind of experiment: Protac activity at E3-ubiquitin ligase/AR in human LNCAP cells assessed as time taken for maximum degradation by ELISA.
Target sequence in this assay (P10275 whole entry, looked up): as the sequence (P10275 whole entry, looked up) above
Target sequence in this assay (P40337 whole entry, looked up): as the sequence (P40337 whole entry, looked up) above
For test [8] the target is unchanged. Briefly: Protac activity at E3-ubiquitin ligase/AR in human VCaP cells assessed as time taken for maximal degradation by ELISA.
Target sequence in this assay (P10275 whole entry, looked up): as the sequence (P10275 whole entry, looked up) above
Target sequence in this assay (P40337 whole entry, looked up): as the sequence (P40337 whole entry, looked up) above

Broadly, the Emax is the size of the effect at its maximum, as opposed to the concentration needed. As usually defined, the DC50 is the midpoint of the concentration-degradation curve.

For the molecule `Cc1ncsc1-c1ccc(CNC(=O)[C@@H]2C[C@@H](O)CN2C(=O)[C@@H](NC(=O)COCCCOCCCCOc2ccc(N3C(=S)N(c4ccc(C#N)c(Cl)c4)C(=O)C3(C)C)cc2)C(C)(C)C)cc1`, the maximal response (Emax) in test [1] and in test [3] was greater than 71% throughout. For the same molecule, the half-maximal degradation concentration (DC50) in test [2] and in test [4] was no more than 50 µM each time. Also, the Activity in test [5] and in test [6] was 50% throughout. Also, the TIME in test [7] and in test [8] was 4 h throughout.

With `Cc1ncsc1-c1ccc([C@H](C)NC(=O)[C@@H]2C[C@@H](O)CN2C(=O)[C@@H](NC(=O)COCCCOCCCCCOc2ccc(N3C(=S)N(c4ccc(C#N)c(C(F)(F)F)c4)C(=O)C3(C)C)cc2F)C(C)(C)C)cc1`, the maximal effect (Emax) is greater than 71% in test [1] and less than 70% in test [3]. For the same molecule, the DC50 in test [2] and in test [4] was no more than 50 µM each time. In addition, the Activity in test [5] and in test [6] was 50% throughout. Besides, the TIME in test [7] and in test [8] was 4 h each time.

Turning to `Cc1ncsc1-c1ccc(CNC(=O)[C@@H]2C[C@@H](O)CN2C(=O)[C@@H](NC(=O)COCCCOCCCCCOc2ccc(N3C(=S)N(c4cnc(C#N)c(C(F)(F)F)c4)C(=O)C3(C)C)cc2)C(C)(C)C)cc1`, the maximal effect (Emax) in test [1] is greater than 71%; in test [3], less than 70%. Besides, the DC50 in test [2] and in test [4] was no more than 50 µM each time. For the same molecule, the Activity in test [5] and in test [6] was 50% each time. In addition, the TIME in test [7] and in test [8] was 4 h in each case.

As to `Cc1ncsc1-c1ccc(CNC(=O)[C@@H]2C[C@@H](O)CN2C(=O)[C@@H](NC(=O)COCCCOCCCCOc2ccc(N3C(=S)N(c4cnc(C#N)c(C(F)(F)F)c4)C(=O)C3(C)C)cc2)C(C)(C)C)cc1`, the Emax in test [1] and in test [3] was greater than 71% each time. Besides, the DC50 in test [2] and in test [4] was no more than 50 µM in each case. Besides, the Activity in test [5] and in test [6] was 50% throughout. Moreover, the TIME in test [7] and in test [8] was 4 h in each case.

On to `Cc1ncsc1-c1ccc(CNC(=O)[C@@H]2C[C@@H](O)CN2C(=O)[C@@H](NC(=O)COCCCOCCCCOc2ccc(N3C(=S)N(c4ccc(C#N)c(C(F)(F)F)c4)C(=O)C3(C)C)cc2F)C(C)(C)C)cc1`, for which the Emax in test [1] and in test [3] was greater than 71% throughout. The half-maximal degradation concentration (DC50) in test [2] and in test [4] was no more than 50 µM throughout. Also, the Activity in test [5] and in test [6] was 50% in each case. The TIME in test [7] and in test [8] was 4 h in each case.

With `Cc1ncsc1-c1ccc([C@H](C)NC(=O)[C@@H]2C[C@@H](O)CN2C(=O)[C@@H](NC(=O)COCCCOCCCCCOc2c(F)cc(N3C(=S)N(c4ccc(C#N)c(C(F)(F)F)c4)C(=O)C3(C)C)cc2F)C(C)(C)C)cc1`, the Emax in test [1] was greater than 71%; in test [3], less than 70%. In addition, the DC50 in test [2] and in test [4] was no more than 50 µM throughout. Also, the Activity in test [5] and in test [6] was 50% each time. In addition, the TIME in test [7] and in test [8] was 4 h in each case.

For the molecule `Cc1ncsc1-c1ccc(CNC(=O)[C@@H]2C[C@@H](O)CN2C(=O)[C@@H](NC(=O)COCCCCOc2ccc(-c3ccc(N4C(=S)N(c5ccc(C#N)c(C(F)(F)F)c5)C(=O)C4(C)C)cc3)cc2)C(C)(C)C)cc1`, the Emax in test [1] and in test [3] was greater than 71% throughout. Further, the 50% degradation concentration (DC50) in test [2] and in test [4] was no more than 50 µM in each case. Moreover, the Activity in test [5] and in test [6] was 50% throughout. In addition, the TIME in test [7] and in test [8] was 4 h each time.

On to `Cc1ncsc1-c1ccc(CNC(=O)[C@@H]2C[C@@H](O)CN2C(=O)[C@@H](NC(=O)COCCCOCCCCCOc2ccc(N3C(=S)N(c4ccc(C#N)c(C(F)(F)F)c4)C(=O)C3(C)C)cc2)C(C)(C)C)cc1`, for which the Emax was greater than 71% in test [1] and less than 70% in test [3]. Besides, the 50% degradation concentration (DC50) in test [2] and in test [4] was no more than 50 µM in each case. In addition, the Activity in test [5] and in test [6] was 50% each time. The TIME in test [7] and in test [8] was 4 h in each case.

These data come from ChEMBL document CHEMBL4616689, “PROTAC Compounds Targeting Androgen Receptor for Cancer Therapeutics: Prostate Cancer and Kennedy's Disease” (ACS Med Chem Lett, 2020).
